According to patent US9434734B2, “Substituted pyrazoloquinazolinones and pyrroloquinazolinones as allosteric modulators of group II metabotropic glutamate receptors” (Domain Therapeutics, priority 2012, dated 2016):

Key:
[1] = target: T1, human mGluR2 (hmGluR2) transiently over-expressed in HEK-293 cells (Homo sapiens, UniProt Q14416); assay: Human mGluR2 negative allosteric modulator evaluation using Ca++ functional assay (agonist and NAM activity); format: cell-based; settings: hmGluR2 in HEK-293 cells, EC80 glutamate, Fluo4AM calcium readout; read-out: mGluR2 negative allosteric modulator activity IC50
T1 construct: expressed in transfected cells; host or cells: HEK-293 cells, transient co-transfection by electroporation
Summary of the method: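 Compound alone (agonist mode) was followed on the same plate by EC80 glutamate (NAM mode), with fluorescence read 60 s. Eight-point curves, variable-slope fit, duplicate, two independent runs.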

T1 sequence (Q14416 19-872): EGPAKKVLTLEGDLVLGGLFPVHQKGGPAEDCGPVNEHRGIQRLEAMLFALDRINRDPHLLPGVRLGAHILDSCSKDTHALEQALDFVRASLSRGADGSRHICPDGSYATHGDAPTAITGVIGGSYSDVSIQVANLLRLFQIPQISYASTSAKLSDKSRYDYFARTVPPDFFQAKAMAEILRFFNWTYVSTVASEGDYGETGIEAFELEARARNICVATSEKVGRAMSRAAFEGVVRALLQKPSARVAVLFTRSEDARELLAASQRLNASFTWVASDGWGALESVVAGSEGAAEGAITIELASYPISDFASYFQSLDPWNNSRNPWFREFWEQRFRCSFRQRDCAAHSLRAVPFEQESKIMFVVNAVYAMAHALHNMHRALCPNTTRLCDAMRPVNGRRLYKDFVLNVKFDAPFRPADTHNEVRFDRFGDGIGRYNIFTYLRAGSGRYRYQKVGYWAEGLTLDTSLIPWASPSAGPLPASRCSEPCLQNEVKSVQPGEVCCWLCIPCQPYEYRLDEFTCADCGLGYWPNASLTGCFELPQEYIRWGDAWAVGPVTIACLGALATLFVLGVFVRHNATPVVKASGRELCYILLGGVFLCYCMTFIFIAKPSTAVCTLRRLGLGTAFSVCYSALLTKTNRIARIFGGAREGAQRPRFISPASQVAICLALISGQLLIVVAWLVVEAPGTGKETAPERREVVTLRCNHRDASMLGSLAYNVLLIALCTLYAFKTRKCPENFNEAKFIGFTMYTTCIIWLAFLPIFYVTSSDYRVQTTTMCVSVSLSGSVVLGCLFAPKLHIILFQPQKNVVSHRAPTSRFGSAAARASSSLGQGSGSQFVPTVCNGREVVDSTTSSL

Structure (SMILES) | IC50 [1] [nM] | melting point [°C]
Cc1n[nH]cc1-c1ccc2c(=O)n(C)c3cc(-c4ccc(F)cc4)nn3c2c1 [Example 81, 2-(4-Fluoro-phenyl)-4-methyl-8-(3-methyl-1H-pyrazol-4-yl)-4H-pyrazolo[1,5-a]quinazolin-5-one] | < 1000 | > 250
Cn1cc(-c2ccc3c(=O)n(C)c4cc(-c5cccnc5)nn4c3c2)cn1 [Example 85, 4-Methyl-8-(1-methyl-1H-pyrazol-4-yl)-2-pyridin-3-yl-4H-pyrazolo[1,5-a]quinazolin-5-one] | < 1000 | > 250
Cn1c(=O)c2ccc(-c3cccc(S(=O)(=O)NC(C)(C)CO)c3)cc2n2nc(C3CCOCC3)cc12 [Example 101, N-(2-Hydroxy-1,1-dimethyl-ethyl)-3-[4-methyl-5-oxo-2-(tetrahydro-pyran-4-yl)-4,5-dihydro-pyrazolo[1,5-a]quinazolin-8-yl]-benzenesulfonamide] | < 1000 | 223 to 226
Cc1cc(-c2ccc3c(=O)n(CC(F)F)c4cc(C5CCOCC5)nn4c3c2)cc(C)n1.Cl [Example 102, 4-(2,2-Difluoro-ethyl)-8-(2,6-dimethyl-pyridin-4-yl)-2-(tetrahydro-pyran-4-yl)-4H-pyrazolo[1,5-a]quinazolin-5-one] | < 1000 | > 250
Cc1cc(-c2ccc3c(=O)n(C)c4cc(C5CCCCO5)nn4c3c2)cc(C)n1.Cl (centres unmarked) [Example 109, 8-(2,6-Dimethyl-pyridin-4-yl)-4-methyl-2-(tetrahydro-pyran-2-yl)-4H-pyrazolo[1,5-a]quinazolin-5-one] | < 1000 | 186 to 194
Cl.Cn1c(=O)c2ccc(-c3ccc(N)nc3)cc2n2cc(-c3ccccc3)cc12 [Example 110, 8-(6-Amino-pyridin-3-yl)-4-methyl-2-phenyl-4H-pyrrolo[1,2-a]quinazolin-5-one] | < 1000 | > 250
Cc1cc(-c2ccc3c(=O)n(C)c4cc(-c5ccccc5)cn4c3c2)cc(C)n1.Cl [Example 111, 8-(2,6-Dimethyl-pyridin-4-yl)-4-methyl-2-phenyl-4H-pyrrolo[1,2-a]quinazolin-5-one] | < 1000 | > 250
Cc1cc(-c2cc3n(C)c(=O)c4ccc(-c5ccccc5)cc4n3n2)cc(C)n1.Cl [Example 115, 2-(2,6-Dimethyl-pyridin-4-yl)-4-methyl-8-phenyl-4H-pyrazolo[1,5-a]quinazolin-5-one] | < 1000 | > 250
Cc1cc(-c2cc3n(C)c(=O)c4ccc(-c5c[nH]nc5C)cc4n3n2)cc(C)n1.Cl [Example 121, 2-(2,6-Dimethyl-pyridin-4-yl)-4-methyl-8-(3-methyl-1H-pyrazol-4-yl)-4H-pyrazolo[1,5-a]quinazolin-5-one] | < 1000 | > 250
Cc1cc(-c2cc3n(C)c(=O)c4ccc(-c5cnn(C)c5)cc4n3n2)cc(C)n1.Cl [Example 122, 2-(2,6-Dimethyl-pyridin-4-yl)-4-methyl-8-(1-methyl-1H-pyrazol-4-yl)-4H-pyrazolo[1,5-a]quinazolin-5-one] | < 1000 | > 250
Cn1cc(-c2cc3n(C)c(=O)c4ccc(-c5ccccc5)cc4n3n2)cn1 [Example 124, 4-Methyl-2-(1-methyl-1H-pyrazol-4-yl)-8-phenyl-4H-pyrazolo[1,5-a]quinazolin-5-one] | < 1000 | 228 to 231
Cl.Cn1cc(-c2cc3n(C)c(=O)c4ccc(-c5cccnc5)cc4n3n2)cn1 [Example 126, 4-Methyl-2-(1-methyl-1H-pyrazol-4-yl)-8-pyridin-3-yl-4H-pyrazolo[1,5-a]quinazolin-5-one] | < 1000 | > 250
Cl.Cn1cc(-c2cc3n(C)c(=O)c4ccc(-c5ccncc5)cc4n3n2)cn1 [Example 129, 4-Methyl-2-(1-methyl-1H-pyrazol-4-yl)-8-pyridin-4-yl-4H-pyrazolo[1,5-a]quinazolin-5-one] | < 1000 | > 250
Cc1cc(-c2ccc3c(=O)n(C)c4cc(-c5cnn(C)c5)nn4c3c2)cc(C)n1.Cl [Example 130, 8-(2,6-Dimethyl-pyridin-4-yl)-4-methyl-2-(1-methyl-1H-pyrazol-4-yl)-4H-pyrazolo[1,5-a]quinazolin-5-one] | < 1000 | > 250
Cc1ncccc1-c1ccc2c(=O)n(C)c3cc(-c4ccnc(C(F)(F)F)c4)nn3c2c1.Cl [Example 135, 4-Methyl-8-(2-methyl-pyridin-3-yl)-2-(2-trifluoromethyl-pyridin-4-yl)-4H-pyrazolo[1,5-a]quinazolin-5-one] | < 1000 | > 250
CCc1ncccc1-c1ccc2c(=O)n(C)c3cc(-c4ccnc(C(F)(F)F)c4)nn3c2c1.Cl [Example 137, 8-(2-Ethyl-pyridin-3-yl)-4-methyl-2-(2-trifluoromethyl-pyridin-4-yl)-4H-pyrazolo[1,5-a]quinazolin-5-one] | < 1000 | > 250

Results, then the compound that gave them:

IC50 [1] [nM] | melting point [°C] | Structure (SMILES)
< 1000 | 218 to 229 | Cl.Cn1c(=O)c2ccc(-c3ccc(N)nc3)cc2n2nc(-c3ccco3)cc12 [Example 82, 8-(6-Amino-pyridin-3-yl)-2-furan-2-yl-4-methyl-4H-pyrazolo[1,5-a]quinazolin-5-one]
< 1000 | > 250 | Cl.Cn1c(=O)c2ccc(-c3ccc(N)nc3)cc2n2nc(C3CCSCC3)cc12 [Example 83, 8-(6-Amino-pyridin-3-yl)-4-methyl-2-(tetrahydro-thiopyran-4-yl)-4H-pyrazolo[1,5-a]quinazolin-5-one]
< 1000 | > 250 | Cl.Cn1c(=O)c2ccc(-c3ccc(N)nc3)cc2n2nc(C3CCS(=O)(=O)CC3)cc12 [Example 84, 8-(6-Amino-pyridin-3-yl)-2-(1,1-dioxo-tetrahydro-2H-thiopyran-4-yl)-4-methyl-4H-pyrazolo[1,5-a]quinazolin-5-one]
< 1000 | > 250 | Cl.Cn1c(=O)c2ccc(-c3ccc(N)nc3)cc2n2nc(C3CCOCC3)cc12 [Example 86, 8-(6-Amino-pyridin-3-yl)-4-methyl-2-(tetrahydro-pyran-4-yl)-4H-pyrazolo[1,5-a]quinazolin-5-one]
< 1000 | 210 to 216 | Cn1c(=O)c2ccc(-c3cccc(C#N)c3)cc2n2nc(C3CCOCC3)cc12 [Example 88, 3-[4-Methyl-5-oxo-2-(tetrahydro-pyran-4-yl)-4,5-dihydro-pyrazolo[1,5-a]quinazolin-8-yl]-benzonitrile]
< 1000 | 202 to 224 | Cl.Cn1c(=O)c2ccc(-c3cccnc3)cc2n2nc(C3CCOCC3)cc12 [Example 89, 4-Methyl-8-pyridin-3-yl-2-(tetrahydro-pyran-4-yl)-4H-pyrazolo[1,5-a]quinazolin-5-one]
< 1000 | 223 to 229 | Cc1[nH]ncc1-c1ccc2c(=O)n(C)c3cc(C4CCOCC4)nn3c2c1 [Example 92, 4-Methyl-8-(5-methyl-1H-pyrazol-4-yl)-2-(tetrahydro-pyran-4-yl)-4H-pyrazolo[1,5-a]quinazolin-5-one]
< 1000 | > 250 | Cc1cc(-c2ccc3c(=O)n(C)c4cc(C5CCOCC5)nn4c3c2)cc(C)n1.Cl [Example 97, 8-(2,6-Dimethyl-pyridin-4-yl)-4-methyl-2-(tetrahydro-pyran-4-yl)-4H-pyrazolo[1,5-a]quinazolin-5-one]
< 1000 | > 250 | Cl.Nc1ccc(-c2ccc3c(=O)n(CC(F)F)c4cc(C5CCOCC5)nn4c3c2)cn1 [Example 103, 8-(6-Amino-pyridin-3-yl)-4-(2,2-difluoro-ethyl)-2-(tetrahydro-pyran-4-yl)-4H-pyrazolo[1,5-a]quinazolin-5-one]
< 1000 | > 250 | Cl.Nc1ccc(-c2ccc3c(=O)n(CC(F)(F)F)c4cc(C5CCOCC5)nn4c3c2)cn1 [Example 104, 8-(6-Amino-pyridin-3-yl)-2-(tetrahydro-pyran-4-yl)-4-(2,2,2-trifluoro-ethyl)-4H-pyrazolo[1,5-a]quinazolin-5-one]
< 1000 | > 250 | Cc1cc(-c2ccc3c(=O)n(C)c4cc(C5CCOC5)nn4c3c2)cc(C)n1.Cl (centres unmarked) [Example 106, 8-(2,6-Dimethyl-pyridin-4-yl)-4-methyl-2-(tetrahydro-furan-3-yl)-4H-pyrazolo[1,5-a]quinazolin-5-one]
< 1000 | 182 to 193 | Cc1cc(-c2ccc3c(=O)n(C)c4cc(C5CCCOC5)nn4c3c2)cc(C)n1.Cl (centres unmarked) [Example 108, 8-(2,6-Dimethyl-pyridin-4-yl)-4-methyl-2-(tetrahydro-pyran-3-yl)-4H-pyrazolo[1,5-a]quinazolin-5-one]
< 1000 | 217 to 228 | Cl.Cn1cc(-c2cc3n(C)c(=O)c4ccc(-c5ccc(N)nc5)cc4n3n2)cn1 [Example 128, 8-(6-Amino-pyridin-3-yl)-4-methyl-2-(1-methyl-1H-pyrazol-4-yl)-4H-pyrazolo[1,5-a]quinazolin-5-one]
< 1000 | 226 to 238 | CCn1cc(-c2cc3n(C)c(=O)c4ccc(-c5ccc(N)nc5)cc4n3n2)cn1.Cl [Example 131, 8-(6-Amino-pyridin-3-yl)-2-(1-ethyl-1H-pyrazol-4-yl)-4-methyl-4H-pyrazolo[1,5-a]quinazolin-5-one]
< 1000 | > 250 | Cl.Cn1c(=O)c2ccc(-c3ccc(N)nc3)cc2n2nc(-c3ccnc(C(F)(F)F)c3)cc12 [Example 136, 8-(6-Amino-pyridin-3-yl)-4-methyl-2-(2-trifluoromethyl-pyridin-4-yl)-4H-pyrazolo[1,5-a]quinazolin-5-one]
